Consider 21 molecules from patent US10030016B2 (Sunesis Pharmaceuticals, Inc., priority 2009, dated 2018).

Counter-ions that a name gives are not always drawn. Like-named read-outs stand apart in the source and are kept apart here.

Assay [1] concerns phospho-akt (Thr308) in PC-3 cells. Put plainly: Inhibition of phospho-akt (Thr308) in PC-3 cells, MSD phospho-akt 308 ELISA kit. As to conditions: 2 hours, no serum, read-out: EC50. Type of assay: cell-based. The procedure, abridged: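 Electrochemiluminescent MSD ELISA of Thr308-phosphorylated Akt after a 2 h serum-free compound exposure of PC-3 cells (15,000/well, plated overnight). Controls: DMSO (high), 5 μM wortmannin (low). Lysate binding overnight at 4 °C; detection antibody 1 h at room temperature.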

Another assay concerns the target PDK1 (Homo sapiens (Human), UniProt O15530). Put plainly: PDK1 kinase assay (coupled PDK1/AKT/FAM-crosstide assay, IMAP fluorescence polarization). In kind it is biochemical. How it is done:
A PDK1 kinase assay was performed as follows. PDK1 (amino acids 51-359) and AKT2 (amino acids 140-467 fused to PIFtide, amino acids […]) were expressed as N-terminally tagged GST fusion proteins in insect cells and purified to homogeneity. Enzyme activity was determined in a coupled PDK1/AKT/FAM-crosstide assay and phosphorylation of FAM-crosstide was determined by standard IMAP protocol (Molecular Devices). For inhibition studies, compounds were titrated 4-fold in DMSO and diluted 40-fold into assay buffer (10 mM Tris HCl pH7.2; 10 mM MgCl2; 0.01% Triton X-100; 1 mM DTT) containing PDK1, AKT2, and FAM-crosstide (final concentrations: 0.75 nM PDK1, 10 nM unphosphorylated AKT2, and 100 nM crosstide substrate). The kinase reaction was initiated by adding ATP to a final concentration of 40 μM of PDK1 and incubated at 25° C. for 30 min. To detect assay product, the kinase reaction was combined with Progressive Binding Solution (1:600 Progressive Binding Reagent, 50% Buffer A, 50% Buffer B, Molecular Devices) in a 1:3 ratio. The mixture was incubated for 2 hours at 25° C. and the plate was scanned on an Analyst AD with excitation at 485 nm and emission at 530 nm. The fluorescence polarization value “P” is defined by the equation below. The value “mP” is generated by multiplying the P value for each reaction well by a factor of 1000. The value “ΔmP” for each well is the mP value for that well minus the mP value for the average negative control. P=(Fpar−Fperp)/(Fpar+Fperp) Eq.:
Where “par” is fluorescence intensity parallel to the excitation plane; and “perp” is fluorescence intensity perpendicular to the excitation plane. ΔmP values were plotted as a function of compound concentration and the data were analyzed with a 4-parameter fit using GraphPad Prism software.
On the technique in general: Fluorescence polarisation rises when a labelled molecule tumbles more slowly, as on binding a larger partner.

The mark [2] stands for this setting: Homo sapiens, inhibition of P308 Akt in PC-3 cells, MSD.
The mark [3] stands for this setting: inhibition of phospo-PDK1 in vitro.
Where [4] appears, read: Homo sapiens, PC-3, 2 h, inhibition of P308 Akt in PC-3 cells, MSD.
The mark [5] stands for this setting: Homo sapiens, inhibition of P308 Akt in PC-3 cells using MSD.

PDK1, sequence (O15530 51-359): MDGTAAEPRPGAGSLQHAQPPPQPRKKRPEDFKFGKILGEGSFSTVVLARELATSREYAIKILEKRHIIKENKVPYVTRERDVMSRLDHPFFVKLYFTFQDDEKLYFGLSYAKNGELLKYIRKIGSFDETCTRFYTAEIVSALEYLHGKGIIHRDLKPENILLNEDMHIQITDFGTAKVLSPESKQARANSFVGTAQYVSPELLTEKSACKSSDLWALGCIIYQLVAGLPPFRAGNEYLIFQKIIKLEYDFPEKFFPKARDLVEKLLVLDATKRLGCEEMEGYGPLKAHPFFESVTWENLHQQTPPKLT

Usually EC50 stands for the concentration at which the effect is half-maximal. A word on the IC50: it is the concentration needed to halve the response being measured. For `CN(Cc1ccc(F)c(F)c1)C(=O)c1nccnc1NCc1ccc(-c2ccc3ncnc(N)c3c2)s1` [Example 3.84, 3-({[5-(4-aminoquinazolin-6-yl)thiophen-2-yl]methyl}amino)-N-(3,4-difluorobenzyl)-N-methylpyrazine-2-carboxamide (TFA salt)], the EC50 in assay [1] (setting [2]) fell in the range of 1000 to 10000 nM. The same molecule showed a half-maximal inhibitory concentration (IC50) at PDK1 (setting [3]) of 100 to 1000 nM.

Regarding `Cc1nc(C)c(/C=C2\C(=O)Nc3cc(/C=C/CNc4ncccc4C(=O)NCc4ccc(F)c(F)c4)ccc32)[nH]1` [Example 15.14, N-(3,4-Difluoro-benzyl)-2-((E)-3-{3-[1-(2,5-dimethyl-3H-imidazol-4-yl)-meth-(Z)-ylidene]-2-oxo-2,3-dihydro-1H-indol-6-yl}-allylamino)-nicotinamide], the EC50 in assay [1] (setting [2]) was less than 1000 nM. Further, the IC50 against PDK1 (setting [3]) was less than 100 nM.

With `C[C@@H](c1ccc(F)c(F)c1)n1cnc2ccnc(NCc3ccc(-c4cc5c(N)ncnc5cn4)s3)c2c1=O` [Example 7.11, 5-({[5-(4-aminopyrido [3,4-d]pyrimidin-6-yl)thiophen-2-yl]methyl}amino)-3-[(1S)-1-(3,4-difluorophenyl)ethyl] pyrido[4,3-d]pyrimidin-4(3H)-one], the EC50 in assay [1] (setting [4]) is less than 1000 nM. The molecule further gave an IC50 on PDK1 (setting [3]) of 100 to 1000 nM.

With `COCC#Cc1cnc(NCc2ccc(-c3ccc4ncnc(N)c4c3)s2)c(C(=O)N[C@@H](C)c2ccc(F)c(F)c2)n1` [Ex. 10.8, 3-({[5-(4-aminoquinazolin-6-yl)thiophen-2-yl]methyl}amino)-N-[(1S)-1-(3,4-difluorophenyl)ethyl]-6-(3-methoxyprop-1-yn-1-yl)pyrazine-2-carboxamide], the EC50 in assay [1] (setting [2]) was less than 1000 nM. This molecule yielded an IC50 against PDK1 (setting [3]) of 100 to 1000 nM.

As to `C[C@H](NC(=O)c1cc(C(F)(F)F)cnc1NCc1ccc(-c2cc3c(N)ncnc3cn2)s1)c1ccc(F)cc1` [Example 8.12.7, 2-({[5-(4-aminopyrido [3,4-d]pyrimidin-6-yl)thiophen-2-yl]methyl}amino)-N-[(1S)-1-(4-fluorophenyl)ethyl]-5-(trifluoromethyl) pyridine-3-carboxamide], the EC50 in assay [1] (setting [2]) was less than 1000 nM. The molecule further displayed an IC50 at PDK1 (setting [3]) of 100 to 1000 nM.

For the molecule `Cc1n[nH]cc1/C=C1\C(=O)Nc2cc(/C=C/CNc3ncccc3C(=O)NCc3ccc(F)c(F)c3)ccc21` [Example 15.10, N-(3,4-Difluoro-benzyl)-2-((E)-3-{3-[1-(3-methyl-1H-pyrazol-4-yl)-meth-(Z)-ylidene]-2-oxo-2,3-dihydro-1H-indol-6-yl}-allylamino)-nicotinamide], the EC50 in assay [1] (setting [2]) is less than 1000 nM. On PDK1 (setting [3]), this molecule came in with an IC50 of less than 100 nM.

For `CN(C)/C=N/c1cnc(NCc2ccc(-c3ccc4ncnc(N)c4c3)s2)c(C(=O)NCc2ccc(F)c(F)c2)c1` [Example 8.6.5, 2-({[5-(4-aminoquinazolin-6-yl)thiophen-2-yl]methyl}amino)-N-(3,4-difluorobenzyl)-5-{[(E)-(dimethylamino)methylidene]amino}pyridine-3-carboxamide], the EC50 in assay [1] (setting [4]) fell in the range of 1000 to 10000 nM. On PDK1 (setting [3]), this molecule came in with an IC50 of 100 to 1000 nM.

In the case of `Nc1ncnc2[nH]nc(-c3ccc(CNc4ncc(C(F)(F)F)cc4C(=O)NCc4ccc(F)c(F)c4)cc3)c12` [Example 329, 2-[4-(4-Amino-1H-pyrazolo [3,4-d]pyrimidin-3-yl)-benzylamino]-N-(3,4-difluoro-benzyl)-5-trifluoromethyl-nicotinamide], the EC50 in assay [1] (setting [5]) was less than 1000 nM. At PDK1 (inhibition of PDK1 in vitro), this molecule returned an IC50 of less than 100 nM.

On to `C[C@H](NC(=O)c1cccnc1NCc1ccc(-c2ccc3nccn3c2)s1)c1ccc(F)cc1` [Example 2.7, (S)-N-(1-(4-fluorophenyl)ethyl)-2-(((5-(imidazo[1,2-a]pyridin-6-yl)thiophen-2-yl)methyl)amino)nicotinamide], for which the EC50 in assay [1] (setting [2]) is greater than 10000 nM. Moreover, the IC50 against PDK1 (setting [3]) fell in the range of 1000 to 5000 nM.

Turning to `NCCCc1nc(-c2ccc(CNc3ncc(C(F)(F)F)cc3C(=O)NCc3ccc(F)c(F)c3)cc2)cnc1N` [Example 72, 2-{4-[5-Amino-6-(3-amino-propyl)-pyrazin-2-yl]-benzyl-amino}-N-(3,4-difluoro-benzyl)-5-trifluoromethyl-nicotinamide], the EC50 in assay [1] (setting [5]) is 1000 to 10000 nM. The same molecule displayed an IC50 against PDK1 (inhibition of PDK1 in vitro) of less than 100 nM.

For `CCC(C)n1cc(-c2ccc(CNc3ncc(C(F)(F)F)cc3C(=O)Nc3ccc(F)cc3)cc2)c2c(N)ncnc21` (stereo not drawn) [Example 441, 2-(4-(4-amino-7-sec-butyl-7H-pyrrolo[2,3-d]pyrimidin-5-yl)benzylamino)-N-(4-fluorophenyl)-5-(trifluoromethyl)nicotinamide], in assay [1] (setting [5]), the concentration for a half-maximal effect (EC50) is greater than 10000 nM. The IC50 against PDK1 (setting [3]) was less than 100 nM.

As to `Nc1ncc(-c2ccc(CNc3ncc(C(F)(F)F)cc3C(=O)Nc3ccc(F)cc3)cc2)nc1O[C@@H]1CCNC1` [Example 159, 2-{4-[5-Amino-6-((R)-pyrrolidin-3-yloxy)-pyrazin-2-yl]-benzylamino}-N-(4-fluoro-phenyl)-5-trifluoromethyl-nicotinamide], the half-maximal effective concentration (EC50) in assay [1] (setting [5]) was less than 1000 nM. The molecule also gave an IC50 at PDK1 (inhibition of PDK1 in vitro) of less than 100 nM.

As for `Nc1ncnc2ccc(-c3ccc(CNc4ncc(-c5ccccc5)nc4C(=O)NCc4ccc(F)c(F)c4)s3)cc12` [Ex. 10.3, 3-({[5-(4-aminoquinazolin-6-yl)thiophen-2-yl]methyl}amino)-N-(3,4-difluorobenzyl)-6-phenylpyrazine-2-carboxamide], the EC50 in assay [1] (setting [2]) is greater than 10000 nM. The IC50 on PDK1 (setting [3]) is greater than 5000 nM.

Turning to `C[C@H](NC(=O)c1nc(C#N)cnc1NCc1ccc(-c2cnc(N)c(CCC3CCNC3)n2)cc1)c1ccc(F)c(F)c1` (single isomer, unassigned) [Example 80], the EC50 in assay [1] (inhibition of P308 Akt in PC-3 cells using MSD) lay within 1000 to 10000 nM. Also, the IC50 against PDK1 (inhibition of PDK1 in vitro) was less than 100 nM.

On to `C[C@H](NC(=O)c1cc(S(C)(=O)=O)cnc1NCc1ccc(-c2ccc3ncnc(N)c3c2)s1)c1ccc(F)cc1` [Example 7.22.2, 2-({[5-(4-aminoquinazolin-6-yl)thiophen-2-yl]methyl}amino)-N-[(1S)-1-(4-fluorophenyl)ethyl]-5-(methylsulfonyl)pyridine-3-carboxamide], for which, in assay [1] (setting [2]), the EC50 was less than 1000 nM. The IC50 against PDK1 (setting [3]) fell in the range of 100 to 1000 nM.

Take `C[C@H](NC(=O)c1nc(C#N)cnc1NCc1ccc(-c2cnc(N)c(OCCN)n2)cc1)c1ccc(F)c(F)c1` [Example 167, 3-{4-[5-Amino-6-(2-amino-ethoxy)-pyrazin-2-yl]-benzylamino}-6-cyano-pyrazine-2-carboxylic acid [(S)-1-(3,4-difluoro-phenyl)-ethyl]-amide]: the concentration giving a half-maximal response (EC50) in assay [1] (setting [5]) is less than 1000 nM. At PDK1 (inhibition of PDK1 in vitro), this molecule registered an IC50 of less than 100 nM.

In the case of `O=C(NCc1ccc(C(F)(F)F)cc1)c1cccnc1NCc1cccc(-c2c[nH]c3ncccc23)c1` [Example 1.7, 2-(3-(1H-pyrrolo[2,3-b]pyridin-3-yl)benzylamino)-N-(4-(trifluoromethyl)benzyl) nicotinamide], the EC50 in assay [1] (setting [2]) was greater than 10000 nM. The molecule also yielded an IC50 against PDK1 (setting [3]) of 1000 to 5000 nM.

Take `C[C@H](NC(=O)c1cc(C#N)cnc1NCc1cnc(-c2cnc3[nH]ncc3c2)s1)c1ccc(F)cc1` [Example 67, 5-Cyano-N-[(S)-1-(4-fluoro-phenyl)-ethyl]-2-{[2-(1H-pyrazolo[3,4-b]pyridin-5-yl)-thiazol-5-ylmethyl]-amino}-nicotinamide]: the EC50 in assay [1] (setting [5]) fell in the range of 1000 to 10000 nM. Further, the IC50 against PDK1 (inhibition of PDK1 in vitro) was less than 100 nM.

Regarding `CN(C)CC(=O)Nc1cnc(NCc2ccc(-c3ccc4ncnc(N)c4c3)s2)c(C(=O)NCc2ccc(F)c(F)c2)c1` [Example 8.5.8, 2-({[5-(4-aminoquinazolin-6-yl)thiophen-2-yl]methyl}amino)-N-(3,4-difluorobenzyl)-5-[(N,N-dimethylglycyl)amino] pyridine-3-carboxamide], in assay [1] (setting [2]), the EC50 was 1000 to 10000 nM. Also, the IC50 against PDK1 (setting [3]) was 100 to 1000 nM.

Take `N#Cc1cnc(NCc2ccc(-c3cnc4[nH]ncc4c3)cc2)c(C(=O)NCc2ccc(F)cc2)c1` [Example 397, 5-Cyano-N-(4-fluoro-benzyl)-2-[4-(1H-pyrazolo[3,4-b]pyridin-5-yl)-benzylamino]-nicotinamide]: in assay [1] (setting [5]), the EC50 is less than 1000 nM. On PDK1 (inhibition of PDK1 in vitro), this molecule displayed an IC50 of less than 100 nM.

For the molecule `Nc1n[nH]c2ncc(-c3ccc(CNc4ncc(C(F)(F)F)cc4C(=O)Nc4ccc(F)cc4)cn3)cc12` [Example 57, 2-(((6-(3-amino-1H-pyrazolo[3,4-b]pyridin-5-yl)pyridin-3-yl)methyl)amino)-N-(4-fluorophenyl)-5-(trifluoromethyl)nicotinamide], the EC50 in assay [1] (setting [5]) is less than 1000 nM. This molecule also displayed an IC50 on PDK1 (inhibition of PDK1 in vitro) of less than 100 nM.
